The test system of the data set is 129SV/colVII homo mice (epidermolysis bullosa model mice). Briefly: Forelimb finger adhesion in epidermolysis bullosa model mice. The format is in vivo. To be noted: from the start of treatment to Week 8.

Where no end group is shown, it is not given here.

For “MGKGDPKKPRGKMSSYAFFVQTCREEHKKKHPDASVNFSEFSKK [HMGB1 peptide (1-44)]”, the “body weight compared with the vehicle group” value is on record as “no significant difference between the groups”.

For the origin of these results see patent publication US20200038486A1, “THERAPEUTIC MEDICINE FOR FIBROUS DISEASE” (StemRIM Inc., priority 2017, published 2020).
